Patent publication US20230277669A1, “USES OF UROLITHINS” (Amazentis SA, priority 2022, published 2023)

System: CD8+ T cells
Assay: In vitro stimulation of CD3+ T cells with aCD3/aCD28 beads in presence of UA
Format: cell-based, FVB mice
Details: 48 h, ICG001 with UA
Procedure: (FIG. 2A) Scheme of CD3+ T-cell activation and analysis for various timepoints. (FIG. 2B) Reduced effector molecule expression on in vitro treated cells (n=3 pooled from three independent experiments). Isolated T-cells were stimulated for 48 h at the presence of UA or DMSO in the indicated doses. Data are mean ± SD, *p < 0.05 by two-sided t-test. (FIG. 2C) Reduced effector molecule expression on in vitro treated cells (n=3 pooled from three independent experiments). Isolated T-cells were stimulated for 48 h at the presence of UA or DMSO in the indicated doses. Data are mean ± SD, *p < 0.05 by two-sided t-test. (FIG. 2D) Quantification of T memory stem cells (TSCM: CD44^-CD62L^+Sca1^hi) after 24 h, 48 h and 96 h post stimulation with aCD3/aCD28 stimulation beads as indicated in (A) (n=4 pooled from four independent experiments). Data are mean ± SD, statistical analysis was performed via two-sided t-test (*p < 0.05; **p < 0.01; n.s. not significant). (FIG. 2E) Mitochondrial membrane potential within naïve CD62L^+CD44^-CD8^+ T cells, with TMRM^lo representing cells with low mitochondrial membrane potential. Cells were stimulated for 48 h as depicted in (A). Data are mean ± SD, n=4; ***p <0.001 by two-sided t-test. Experiment was repeated twice in independent experiments. (FIG. 2F) Representative histogram and quantification of memory marker CD95 expression in CD62L^+CD44^-CD8^+ cells, 48 hours after in vitro stimulation. Data are mean ± SD; n=5; ****p < 0.0001 by two-sided t-test. Data depicts one of two independent experiments. (FIG. 2G) Analysis of TIL of UA-fed mice, treated as depicted in FIG. 1J. Percentage of TSCM within CD8+ (G; n=7), as well as TCF1 (H; n=7) PD1^hi,Tim3^hi and CTLA4hi (I-K, all n=6) in the TIL CD8+ population are shown. Data are mean ± SD, statistical analysis was performed via two-sided t-test (*p < 0.05; **p < 0.01;, ***p <0.001.). Data depicts one of two independent experiments. (FIG. 2H) The same experiment as FIG. 2G with TCF1 (n=7) in the TIL CD8+ population. (FIG. 2I) The same experiment as FIG. 2G with PD1^hi (n=6) in the TIL CD8+ population. (FIG. 2J) The same experiment as FIG. 2G with Tim3^hi (n=6) in the TIL CD8+ population. (FIG. 2K) The same experiment as FIG. 2G with CTLA4hi (n=6) in the TIL CD8+ population. (FIG. 2L) Flow cytometry readout of ex vivo cytokine release of previously isolated TIL upon re-stimulation with PMA/ionomycin. Data are mean ± SD with n=7 per group. Statistical analysis was performed by two-sided t-test (**p < 0.01). One out of two independent experiments are shown. (FIG. 2M) Flow cytometry readout of ex vivo cytokine release of previously isolated TIL upon re-stimulation with PMA/ionomycin. Data are mean ± SD with n=7 per group. Statistical analysis was performed by two-sided t-test (**p < 0.01). One out of two independent experiments are shown.
(FIG. 4A) Scheme of CD3+ T-cell activation and analysis for various timepoints in order to investigate mitophagy induction in vitro. (FIG. 4B) Analysis of mitochondrial membrane potential within CD8+ T cells, with TMRM^lo representing cells with low mitochondrial membrane potential. Analysis was performed six hours after stimulation with aCD/aCD28 stimulation beads at the presence of the indicated treatments. N=4 per group, *p < 0.05 by Mann Whitney U test. One of two independent experiments are shown. (FIG. 4C) Representative flow histogram and quantification of lysosome formation in CD8+ cells six hours after in vitro stimulation. MFI shown relative to DMSO controls, n=4. Data are normalised mean ± SD, statistical analysis by two-sided t-test. One out of two independent experiments are shown. (FIG. 4D) Mitotracker Red staining of in vitro stimulated CD8+ cells after 24 hours of Urolithin A (UA25 n=6; UA50 n=6) or vehicle control treatment (DMSO: n=4). A representative flow histogram depicting identification of Mitotracker^hi cells is shown. […]

O=C1[C@H](Cc2ccc(O)cc2)N2C(=O)CCN(C(=O)NCc3ccccc3)[C@H]2CN1Cc1cccc2ccccc12 [ICG001, reference compound] was tested, and the “UA-induced TCF1 expression” value was “abrogated” and the “UA-induced TSCM formation” value was “abrogated”.
